Drawing on patent US20230293519A1, “INTEGRIN INHIBITORS AND USES THEREOF IN COMBINATION WITH OTHER AGENTS” (Pliant Therapeutics, Inc., priority 2021, published 2023), this text covers IC50 for 55 molecules.

Where only a bound is given, the exact number is not on record here.

In this assay the target is recombinant human integrin αvβ6 (Homo sapiens (Human), UniProt P06756+P18564). Description: Solid phase integrin αvβ6 binding assay. The settings on record: IC50 presented in four ranges; read-out: αvβ6 Inhibition IC50 (nM) - range. How it is done:
(§1) Microplates were coated with recombinant human integrin αvβ6 (2 µg/mL) in PBS (100 µL/well 25° C., overnight). The coating solution was removed, washed with wash buffer (0.05% Tween 20; 0.5 mM MnCl2; in 1x TBS). The plate was blocked with 200 µL/well of Block Buffer (1% BSA; 5% sucrose; 0.5 mM MnCl2; in 1x TBS) at 37° C. for 2 h. Dilutions of testing compounds and recombinant TGFβ1 LAP (0.67 µg/mL) in binding buffer (0.05% BSA; 2.5% sucrose; 0.5 mM MnCl2; in 1x TBS) were added. The plate was incubated for 2 hours at 25° C., washed, and incubated for 1 hour with Biotin-Anti-hLAP. Bound antibody was detected by peroxidase-conjugated streptavidin. The IC50 values for testing compounds were calculated by a four-parameter logistic regression.
The compounds tested were compound samples prepared according to procedures described in the Synthetic Examples section, with the stereochemical purity as indicated in the Examples.
as §1, with “A third series of exemplary compounds was selected for testing in the solid phase integrin αvβ6 binding assay. The compounds tested were compound samples prepared according to procedures described in the Synthetic Examples section, with the stereochemical purity as indicated in the Examples. As in Example B1, microplates” for “Microplates”

Sequence of recombinant human integrin αvβ6 (P06756 31-889): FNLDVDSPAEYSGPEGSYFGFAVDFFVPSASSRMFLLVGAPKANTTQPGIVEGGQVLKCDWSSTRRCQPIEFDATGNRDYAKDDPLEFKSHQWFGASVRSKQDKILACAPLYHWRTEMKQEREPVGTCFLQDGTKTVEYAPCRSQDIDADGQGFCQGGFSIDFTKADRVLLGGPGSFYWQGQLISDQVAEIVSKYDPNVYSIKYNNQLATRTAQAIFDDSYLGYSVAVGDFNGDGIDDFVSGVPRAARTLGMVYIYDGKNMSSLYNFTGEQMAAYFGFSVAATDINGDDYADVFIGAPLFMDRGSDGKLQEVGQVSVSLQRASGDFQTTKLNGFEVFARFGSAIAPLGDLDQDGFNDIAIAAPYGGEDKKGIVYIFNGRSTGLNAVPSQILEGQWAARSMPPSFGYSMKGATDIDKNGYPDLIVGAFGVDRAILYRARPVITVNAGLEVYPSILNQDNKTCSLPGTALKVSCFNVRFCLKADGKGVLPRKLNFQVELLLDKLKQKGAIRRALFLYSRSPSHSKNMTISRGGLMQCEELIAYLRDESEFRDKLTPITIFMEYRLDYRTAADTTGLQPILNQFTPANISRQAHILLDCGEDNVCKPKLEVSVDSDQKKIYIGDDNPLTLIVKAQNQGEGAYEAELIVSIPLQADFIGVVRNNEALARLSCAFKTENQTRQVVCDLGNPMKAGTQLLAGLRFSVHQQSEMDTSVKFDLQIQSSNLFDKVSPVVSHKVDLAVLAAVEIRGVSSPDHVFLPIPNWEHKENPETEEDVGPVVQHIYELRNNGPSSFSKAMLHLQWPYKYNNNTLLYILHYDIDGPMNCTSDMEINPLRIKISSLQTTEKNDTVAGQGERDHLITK
Sequence of recombinant human integrin αvβ6 (P06756 890-992 partner): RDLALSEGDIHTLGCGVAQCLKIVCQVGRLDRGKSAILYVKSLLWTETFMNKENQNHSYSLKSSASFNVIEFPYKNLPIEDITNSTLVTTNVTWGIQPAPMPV
Sequence of recombinant human integrin αvβ6 (P18564 22-707): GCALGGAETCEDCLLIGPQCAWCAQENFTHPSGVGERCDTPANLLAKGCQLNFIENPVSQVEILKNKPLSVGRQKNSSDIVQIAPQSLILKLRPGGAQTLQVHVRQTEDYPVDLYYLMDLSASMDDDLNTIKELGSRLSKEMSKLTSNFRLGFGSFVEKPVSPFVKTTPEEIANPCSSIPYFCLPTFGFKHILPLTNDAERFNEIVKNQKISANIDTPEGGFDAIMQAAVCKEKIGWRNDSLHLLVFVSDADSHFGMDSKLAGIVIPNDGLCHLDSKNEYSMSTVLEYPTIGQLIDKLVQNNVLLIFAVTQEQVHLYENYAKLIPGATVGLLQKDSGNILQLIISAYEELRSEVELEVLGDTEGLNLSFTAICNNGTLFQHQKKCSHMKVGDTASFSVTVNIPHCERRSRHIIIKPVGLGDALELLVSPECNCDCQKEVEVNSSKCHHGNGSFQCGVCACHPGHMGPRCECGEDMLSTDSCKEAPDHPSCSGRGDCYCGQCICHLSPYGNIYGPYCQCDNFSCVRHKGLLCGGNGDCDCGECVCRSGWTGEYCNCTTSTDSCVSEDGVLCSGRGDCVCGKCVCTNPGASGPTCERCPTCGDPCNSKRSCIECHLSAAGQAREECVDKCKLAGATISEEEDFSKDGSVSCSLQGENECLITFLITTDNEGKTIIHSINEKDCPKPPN

Take `COCCN(CCCCc1ccc2c(n1)NCCC2)CC[C@H](Nc1ncnc2cc(F)c(F)cc12)C(=O)O` [compound 21]: the IC50 (commonly the point on the concentration scale where inhibition reaches its midpoint) was under 50 nM. To `Cc1nc(N[C@@H](CCN(CCCCc2ccc3c(n2)NCCC3)CCOc2cncc(F)c2)C(=O)O)c2ccc(F)cc2n1` [compound 61] belongs under 50 nM; to `Cc1nc(N[C@@H](CCN(CCCCc2ccc3c(n2)NCCC3)CC2CC(F)(F)C2)C(=O)O)c2ccc(F)cc2n1` [compound 33], under 50 nM; to `COCCN(CCCCc1ccc2c(n1)NCCC2)CC[C@H](Nc1nc(C)nc2ccccc12)C(=O)O` [compound 10], under 50 nM. The figure for `N#Cc1cnc(N[C@@H](CCN(CCCCc2ccc3c(n2)NCCC3)CCOc2ccccc2)C(=O)O)nc1` [compound 111] is under 50 nM; for `COC[C@@H](F)CN(CCCCc1ccc2c(n1)NCCC2)CC[C@H](Nc1cc(-n2cccn2)ncn1)C(=O)O` [compound 108] it is over 1000 nM; for `O=C(O)[C@H](CCN(CCCCc1ccc2c(n1)NCCC2)CCOc1cncc(F)c1)Nc1ncnc2cccnc12` [compound 60] it is under 50 nM. To `O=C(O)[C@H](CCN(CCCCc1ccc2c(n1)NCCC2)CC1CCO1)Nc1ncnc2ccccc12` (stereo partly shown) [compound 129] belongs under 50 nM; to `CO[C@H](C)CN(CCCCc1ccc2c(n1)NCCC2)CC[C@H](Nc1ncc(C(F)(F)F)cn1)C(=O)O` [compound 85], 250 to 1000 nM. On to `COCCN(CCCCc1ccc2c(n1)NCCC2)CC[C@H](Nc1ncnc2c(C(F)(F)F)cccc12)C(=O)O` [compound 15], for which the IC50 was under 50 nM. The figure for `N#Cc1cnc(N[C@@H](CCN(CCCCc2ccc3c(n2)NCCC3)CC(F)F)C(=O)O)nc1` [compound 118] is over 1000 nM; for `O=C(O)[C@H](CCN(CCCCc1ccc2c(n1)NCCC2)CCOc1ccc(F)cc1)Nc1ncnc2[nH]ncc12` [compound 143] it is 50 to 250 nM; for `CCOCCN(CCCCc1ccc2c(n1)NCCC2)CC[C@H](Nc1ncnc2ccccc12)C(=O)O` [compound 55] it is under 50 nM. To `Cc1nc(N[C@@H](CCN(CCCCc2ccc3c(n2)NCCC3)CCOc2cccnc2C)C(=O)O)c2ccc(F)cc2n1` [compound 53] belongs under 50 nM. To `O=C(O)[C@H](CCN(CCCF)CCCCc1ccc2c(n1)NCCC2)Nc1ncc(C(F)(F)F)cn1` [compound 137] belongs under 50 nM.

With `Cn1ncc2c(N[C@@H](CCN(CCCCc3ccc4c(n3)NCCC4)CCOc3ccccc3)C(=O)O)ncnc21` [compound 82], the IC50 was under 50 nM.

Turning to `O=C(O)[C@H](CCN(CCCCc1ccc2c(n1)NCCC2)CCOc1ccccc1)Nc1ncc(C2CC2)cn1` [compound 117], the IC50 is under 50 nM. The figure for `O=C(O)[C@H](CCN(CCCCc1ccc2c(n1)NCCC2)CC(F)F)Nc1ncc(C(F)(F)F)cn1` [compound 95] is over 1000 nM; for `CO[C@H](C)CN(CCCCc1ccc2c(n1)NCCC2)CC[C@H](Nc1ncc(F)cn1)C(=O)O` [compound 78] it is under 50 nM; for `O=C(O)[C@H](CCN(CCCCc1ccc2c(n1)NCCC2)CC(F)F)Nc1ccncn1` [compound 120] it is over 1000 nM.

On to `O=C(O)[C@H](CCN(CCCCc1ccc2c(n1)NCCC2)CCOc1ccc(F)cc1)Nc1ncc(C(F)(F)F)cn1` [compound 139], for which the half-maximal inhibitory concentration (IC50) was under 50 nM.

As for `CO[C@@H](C)CN(CCCCc1ccc2c(n1)NCCC2)CC[C@H](Nc1ncnc2ccccc12)C(=O)O` [compound 25], the IC50 was under 50 nM. To `O=C(O)[C@H](CCN(CCCCc1ccc2c(n1)NCCC2)CCOc1ccccn1)Nc1ncnc2c(Cl)cccc12` [compound 48] belongs under 50 nM; to `Cc1cc(C)n(CCN(CCCCc2ccc3c(n2)NCCC3)CC[C@H](Nc2ncnc3ccccc23)C(=O)O)n1` [compound 45], under 50 nM; to `O=C(O)[C@H](CCN(CCCCc1ccc2c(n1)NCCC2)CC(F)F)Nc1ncnc2[nH]ncc12` [compound 112], 250 to 1000 nM. As to `Cn1ncc2c(N[C@@H](CCN(CCCCc3ccc4c(n3)NCCC4)CCS(C)(=O)=O)C(=O)O)ncnc21` [compound 101], the IC50 lay in the range of 50 to 250 nM. The figure for `COC[C@@H](F)CN(CCCCc1ccc2c(n1)NCCC2)CC[C@H](Nc1ncnc2ccccc12)C(=O)O` [compound 31] is under 50 nM; for `O=C(O)[C@H](CCN(CCCCc1ccc2c(n1)NCCC2)CC(F)F)Nc1ncc(C2CC2)cn1` [compound 146] it is over 1000 nM; for `CO[C@H](C)CN(CCCCc1ccc2c(n1)NCCC2)CC[C@H](Nc1ncnc2c1cnn2C)C(=O)O` [compound 74] it is under 50 nM. The figure for `COCCN(CCCCc1ccc2c(n1)NCCC2)CC[C@H](Nc1cc(C(F)(F)F)nc(C)n1)C(=O)O` [compound 22] is under 50 nM. Consider `COc1cccc2c(N[C@@H](CCN(CCCF)CCCCc3ccc4c(n3)NCCC4)C(=O)O)ncnc12` [compound 43], for which the IC50 is under 50 nM. The figure for `COC[C@@H](F)CN(CCCCc1ccc2c(n1)NCCC2)CC[C@H](Nc1nc(C)nc2cc(F)ccc12)C(=O)O` [compound 32] is under 50 nM; for `O=C(O)[C@H](CCN(CCCCc1ccc2c(n1)NCCC2)CCOc1ccccc1)Nc1nc(-c2cccnc2)nc2ccccc12` [compound 94] it is under 50 nM. To `O=C(O)[C@H](CCN(CCCCc1ccc2c(n1)NCCC2)CCOc1ccccc1)Nc1ccnc(C(F)(F)F)n1` [compound 92] belongs under 50 nM; to `Cc1ccc2c(N[C@@H](CCN(CCCCc3ccc4c(n3)NCCC4)CCOc3ccc(C)nc3)C(=O)O)nc(C)nc2c1` [compound 56], under 50 nM. To `CO[C@H](C)CN(CCCCc1ccc2c(n1)NCCC2)CC[C@H](Nc1ncncc1-c1ccccc1)C(=O)O` [compound 81] belongs under 50 nM. `COC[C@@H](F)CN(CCCCc1ccc2c(n1)NCCC2)CC[C@H](Nc1ncnc2c1cnn2C)C(=O)O` [compound 105]: the IC50 is under 50 nM. The figure for `Cn1ncc2c(N[C@@H](CCN(CCCCc3ccc4c(n3)NCCC4)CC(F)F)C(=O)O)ncnc21` [compound 88] is over 1000 nM; for `O=C(O)[C@H](CCN(CCCCc1ccc2c(n1)NCCC2)CCOc1ccccc1)Nc1ncnc2[nH]ncc12` [compound 90] it is under 50 nM. The figure for `O=C(O)[C@H](CCN(CCCCc1ccc2c(n1)NCCC2)CCOc1ccccc1)Nc1ncnc2ccccc12` [compound 28] is under 50 nM; for `Cn1ncc2c(N[C@@H](CCN(CCCCc3ccc4c(n3)NCCC4)CCC(F)F)C(=O)O)ncnc21` [compound 133] it is 50 to 250 nM. `COCCN(CCCCc1ccc2c(n1)NCCC2)CC[C@H](Nc1ncnc2ccc(F)cc12)C(=O)O` [compound 19]: the half-maximal inhibitory concentration (IC50) was under 50 nM. To `Cc1nc(N[C@@H](CCN(CCCCc2ccc3c(n2)NCCC3)CCOC2CC2(F)F)C(=O)O)c2ccc(F)cc2n1` (stereo partly shown) [compound 42] belongs under 50 nM; to `O=C(O)[C@H](CCN(CCCCc1ccc2c(n1)NCCC2)CC(F)F)Nc1ncnc2ccccc12` [compound 8], 50 to 250 nM. The figure for `COCCN(CCCCc1ccc2c(n1)NCCC2)CC[C@H](Nc1ncnc2c(Cl)cccc12)C(=O)O` [compound 38] is under 50 nM; for `O=C(O)[C@H](CCN(CCCCc1ccc2c(n1)NCCC2)C1CC1)Nc1ncnc2[nH]ncc12` [compound 116] it is 50 to 250 nM. The figure for `COCCN(CCCCc1ccc2c(n1)NCCC2)CC[C@H](Nc1nccnc1C#N)C(=O)O` [compound 67] is under 50 nM; for `O=C(O)[C@H](CCN(CCCCc1ccc2c(n1)NCCC2)CCC(F)F)Nc1ncc(Br)cn1` [compound 131] it is 50 to 250 nM. Regarding `O=C(O)[C@H](CCN(CCCCc1ccc2c(n1)NCCC2)CC(F)F)Nc1nc(-c2cccnc2)nc2ccccc12` [compound 99], the concentration for half-maximal inhibition (IC50) was 250 to 1000 nM.

For `O=C(O)[C@H](CCN(CCCCc1ccc2c(n1)NCCC2)CCC(F)F)Nc1ncc(C(F)(F)F)cn1` [compound 132], the IC50 lay within 50 to 250 nM. The figure for `CN(C)C(=O)CN(CCCCc1ccc2c(n1)NCCC2)CC[C@H](Nc1ccnc(C(F)(F)F)n1)C(=O)O` [compound 145] is under 50 nM. For the molecule `CO[C@H](C)CN(CCCCc1ccc2c(n1)NCCC2)CC[C@H](Nc1nc(C)nc2ccccc12)C(=O)O` [compound 66], the IC50 was under 50 nM.

In the case of `CO[C@H](C)CN(CCCCc1ccc2c(n1)NCCC2)CC[C@H](Nc1ccnc(-c2ccccc2)n1)C(=O)O` [compound 73], the IC50 is under 50 nM. The figure for `COCCN(CCCCc1ccc2c(n1)NCCC2)CC[C@H](Nc1cc(C(F)F)ncn1)C(=O)O` [compound 23] is under 50 nM; for `N#Cc1cnc(N[C@@H](CCN(CCCCc2ccc3c(n2)NCCC3)CCOc2ccc(F)cc2)C(=O)O)nc1` [compound 138] it is under 50 nM.
